Laboratory results published in US10253039B2, “Inhibitors of bacterial DNA gyrase with efficacy against gram-negative bacteria” (priority 2014, dated 2019).
In brackets after ≈: the same amount, converted by molar mass. Where two headings read alike, the source gives them in different places.

Assays:
Type in all cases: cell-based
Shigella flexneri = test: MIC, 20-strain panel
In short: (§1)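 First, a 1:10000 inoculum of each strain was made in Luria-Bertani medium from a growing subculture. Next, the compound was added and diluted 2-fold down the plate in three replicate columns, with DMSO in a fourth. Finally, plates were shaken at 37° C. for 16-18 hours and scored visually.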

[1] = test system: Morganella morganii subsp. morganii; test: MIC, 20-strain panel; details: Morganella morganii
In short: as §1

[2] = test system: Staphylococcus saprophyticus subsp. saprophyticus; test: MIC, 20-strain panel
In short: as §1

[3] = test system: Staphylococcus epidermidis; test: MIC, 20-strain panel
In short: as §1

E. coli JW5503 (deltolC) = test: MIC, 20-strain panel; details: Escherichia coli
In short: as §1

[4] = test system: Klebsiella pneumoniae subsp. pneumoniae; test: MIC, 20-strain panel
In short: as §1

Streptococcus pyogenes = test: MIC, 20-strain panel
In short: as §1

[5] = test system: Salmonella enterica subsp. enterica typhimurium; test: MIC, 20-strain panel
In short: as §1

Streptococcus agalactiae = test: MIC, 20-strain panel
In short: as §1

E. coli MG1655 = test: MIC, 20-strain panel; details: Escherichia coli, read-out: MIC
In short: as §1

[6] = test system: Staphylococcus aureus subsp. aureus; test: MIC, 20-strain panel; details: read-out: MIC
In short: as §1

Edwardsiella tarda = test: MIC, microdilution in 96-well plates
In short: as §1

Acinetobacter baumannii = test: MIC, microdilution in 96-well plates
In short: as §1

Enterobacter aerogenes = test: MIC, microdilution in 96-well plates; details: Klebsiella aerogenes
In short: as §1

Pseudomonas aeruginosa = test: MIC, microdilution in 96-well plates
In short: as §1

E. coli BW25113 = test: MIC, microdilution in 96-well plates; details: Escherichia coli, read-out: MIC
In short: as §1

[7] = Table 7, separate set of experiments
[8] = E. coli JW5503 (deltolC), Table 7, separate set of experiments
[9] = E: Klebsiella pneumoniae subsp. pneumoniae
[10] = Klebsiella pneumoniae subsp. pneumoniae, Table 7, separate set of experiments
[11] = F: Salmonella enterica subsp. enterica Typhimurium
[12] = Salmonella enterica subsp. enterica typhimurium, Table 7, separate set of experiments
[13] = MG1655, E. coli MG1655, Table 7, separate set of experiments
[14] = H: Staphylococcus aureus subsp. aureus
[15] = BW25113, E. coli BW25113, Table 7, separate set of experiments
[16] = Klebsiella pneumoniae subsp. pneumoniae
[17] = Salmonella enterica subsp. enterica Typhimurium
[18] = Staphylococcus aureus subsp. aureus

N#Cc1ccc(Cl)c(S(=O)(=O)N[C@@H]2CCN(Cc3ccc(OC4CC4)cc3)C2)c1 [Compound 77]
MIC (Shigella flexneri; G: Shigella flexneri): 4 µg/mL (≈ 9.26 µM) | MIC (Shigella flexneri; [7]): 4 µg/mL (≈ 9.26 µM) | MIC [1]: > 16 µg/mL | MIC [2]: > 8 µg/mL | MIC [3]: > 8 µg/mL | MIC (E. coli JW5503 (deltolC); C: E. coli JW5503 (deltolC)): 0.125 µg/mL (≈ 0.289 µM) | MIC (E. coli JW5503 (deltolC); [8]): 0.125 µg/mL (≈ 0.289 µM) | MIC [4, 9]: ~8 µg/mL (≈ 18.5 µM) | MIC [4, 10]: > 16 µg/mL | MIC (Streptococcus pyogenes): > 8 µg/mL | MIC [5, 11]: 1 µg/mL (≈ 2.32 µM) | MIC [5, 12]: 2 µg/mL (≈ 4.63 µM) | MIC (Streptococcus agalactiae): > 8 µg/mL | MIC (E. coli MG1655; MG1655, A: E. coli MG1655): 8 µg/mL (≈ 18.5 µM) | MIC (E. coli MG1655; [13]): 16 µg/mL (≈ 37 µM) | MIC [6, 14]: > 8 µg/mL | MIC (Edwardsiella tarda; D: Edwardsiella tarda): 8 µg/mL (≈ 18.5 µM) | MIC (Edwardsiella tarda; [7]): 16 µg/mL (≈ 37 µM) | MIC (Acinetobacter baumannii): > 16 µg/mL | MIC (Enterobacter aerogenes): > 16 µg/mL | MIC (Pseudomonas aeruginosa): > 16 µg/mL | MIC (E. coli BW25113; BW25113, B: E. coli BW25113): 8 µg/mL (≈ 18.5 µM) | MIC (E. coli BW25113; [15]): 8 µg/mL (≈ 18.5 µM)

Cc1ccc(C#N)cc1S(=O)(=O)N[C@@H]1CCN(Cc2ccc(OC3CC3)cc2)C1 [Compound 113]
MIC (Shigella flexneri; G: Shigella flexneri): ~8 µg/mL (≈ 19.4 µM) | MIC (Shigella flexneri; [7]): 8 µg/mL (≈ 19.4 µM) | MIC [1]: > 16 µg/mL | MIC [2]: > 8 µg/mL | MIC [3]: > 8 µg/mL | MIC (E. coli JW5503 (deltolC); C: E. coli JW5503 (deltolC)): 0.25 µg/mL (≈ 0.607 µM) | MIC (E. coli JW5503 (deltolC); [8]): 0.125 µg/mL (≈ 0.304 µM) | MIC [4, 9]: > 8 µg/mL | MIC [4, 10]: > 16 µg/mL | MIC (Streptococcus pyogenes): > 8 µg/mL | MIC [5, 11]: 2 µg/mL (≈ 4.86 µM) | MIC [5, 12]: 4 µg/mL (≈ 9.72 µM) | MIC (Streptococcus agalactiae): > 8 µg/mL | MIC (E. coli MG1655; MG1655, A: E. coli MG1655): ~8 µg/mL (≈ 19.4 µM) | MIC (E. coli MG1655; [13]): 16 µg/mL (≈ 38.9 µM) | MIC [6, 14]: > 8 µg/mL | MIC (Edwardsiella tarda; D: Edwardsiella tarda): ~8 µg/mL (≈ 19.4 µM) | MIC (Edwardsiella tarda; [7]): 16 µg/mL (≈ 38.9 µM) | MIC (Acinetobacter baumannii): > 16 µg/mL | MIC (Enterobacter aerogenes): > 16 µg/mL | MIC (Pseudomonas aeruginosa): > 16 µg/mL | MIC (E. coli BW25113; BW25113, B: E. coli BW25113): ~8 µg/mL (≈ 19.4 µM) | MIC (E. coli BW25113; [15]): 8 µg/mL (≈ 19.4 µM)

O=S(=O)(N[C@@H]1CCN(Cc2ccc(OC3CC3)cc2)C1)c1cccc(C(F)(F)F)c1 [Compound 156]
MIC (Shigella flexneri; G: Shigella flexneri): 8 µg/mL (≈ 18.2 µM) | MIC (Shigella flexneri; [7]): 8 µg/mL (≈ 18.2 µM) | MIC [1]: > 16 µg/mL | MIC [2]: > 8 µg/mL | MIC [3]: > 8 µg/mL | MIC (E. coli JW5503 (deltolC); C: E. coli JW5503 (deltolC)): 0.125 µg/mL (≈ 0.284 µM) | MIC (E. coli JW5503 (deltolC); [8]): 0.125 µg/mL (≈ 0.284 µM) | MIC [4, 9]: > 8 µg/mL | MIC [4, 10]: > 16 µg/mL | MIC (Streptococcus pyogenes): > 8 µg/mL | MIC [5, 11]: 4 µg/mL (≈ 9.08 µM) | MIC [5, 12]: 4 µg/mL (≈ 9.08 µM) | MIC (Streptococcus agalactiae): > 8 µg/mL | MIC (E. coli MG1655; MG1655, A: E. coli MG1655): ~8 µg/mL (≈ 18.2 µM) | MIC (E. coli MG1655; [13]): 16 µg/mL (≈ 36.3 µM) | MIC [6, 14]: > 8 µg/mL | MIC (Edwardsiella tarda; D: Edwardsiella tarda): ~8 µg/mL (≈ 18.2 µM) | MIC (Edwardsiella tarda; [7]): 16 µg/mL (≈ 36.3 µM) | MIC (Acinetobacter baumannii): > 16 µg/mL | MIC (Enterobacter aerogenes): > 16 µg/mL | MIC (Pseudomonas aeruginosa): > 16 µg/mL | MIC (E. coli BW25113; BW25113, B: E. coli BW25113): ~8 µg/mL (≈ 18.2 µM) | MIC (E. coli BW25113; [15]): 16 µg/mL (≈ 36.3 µM)

Cn1ccc(-c2ccc(CN3CC[C@@H](NS(=O)(=O)c4cccc(C(F)(F)F)c4)C3)cc2)n1 [Compound 171]
MIC (Shigella flexneri): > 8 µg/mL | MIC [2]: > 8 µg/mL | MIC [3]: > 8 µg/mL | MIC (E. coli JW5503 (deltolC); E. coli JW5503 (deltolC)): 1 µg/mL (≈ 2.15 µM) | MIC [4, 16]: > 8 µg/mL | MIC (Streptococcus pyogenes): > 8 µg/mL | MIC [5, 17]: > 8 µg/mL | MIC (Streptococcus agalactiae): > 8 µg/mL | MIC (E. coli MG1655; MG1655, E. coli MG1655): > 8 µg/mL | MIC [6, 18]: > 8 µg/mL | MIC (Edwardsiella tarda): > 8 µg/mL | MIC (E. coli BW25113; BW25113, E. coli BW25113): > 8 µg/mL

O=S(=O)(N[C@@H]1CCN(Cc2nc(-c3ccccc3)cs2)C1)c1cccc(C(F)(F)F)c1 [Compound 173]
MIC (Shigella flexneri): > 8 µg/mL | MIC [2]: > 8 µg/mL | MIC [3]: > 8 µg/mL | MIC (E. coli JW5503 (deltolC); E. coli JW5503 (deltolC)): > 8 µg/mL | MIC [4, 16]: > 8 µg/mL | MIC (Streptococcus pyogenes): > 8 µg/mL | MIC [5, 17]: > 8 µg/mL | MIC (Streptococcus agalactiae): > 8 µg/mL | MIC (E. coli MG1655; MG1655, E. coli MG1655): > 8 µg/mL | MIC [6, 18]: > 8 µg/mL | MIC (Edwardsiella tarda): > 8 µg/mL | MIC (E. coli BW25113; BW25113, E. coli BW25113): > 8 µg/mL

Cc1ccc(S(=O)(=O)N[C@@H]2CCN(Cc3ccc(-c4ccccc4)cc3)C2)cn1 [Compound 174]
MIC (Shigella flexneri): > 8 µg/mL | MIC [2]: > 8 µg/mL | MIC [3]: > 8 µg/mL | MIC (E. coli JW5503 (deltolC); E. coli JW5503 (deltolC)): > 8 µg/mL | MIC [4, 16]: > 8 µg/mL | MIC (Streptococcus pyogenes): > 8 µg/mL | MIC [5, 17]: > 8 µg/mL | MIC (Streptococcus agalactiae): > 8 µg/mL | MIC (E. coli MG1655; MG1655, E. coli MG1655): > 8 µg/mL | MIC [6, 18]: > 8 µg/mL | MIC (Edwardsiella tarda): > 8 µg/mL | MIC (E. coli BW25113; BW25113, E. coli BW25113): > 8 µg/mL

Cc1ccc(S(=O)(=O)N[C@@H]2CCN(Cc3ccc(OC4CC4)cc3)C2)cn1 [Compound 175]
MIC (Shigella flexneri): > 8 µg/mL | MIC [2]: > 8 µg/mL | MIC [3]: > 8 µg/mL | MIC (E. coli JW5503 (deltolC); E. coli JW5503 (deltolC)): > 8 µg/mL | MIC [4, 16]: > 8 µg/mL | MIC (Streptococcus pyogenes): > 8 µg/mL | MIC [5, 17]: > 8 µg/mL | MIC (Streptococcus agalactiae): > 8 µg/mL | MIC (E. coli MG1655; MG1655, E. coli MG1655): > 8 µg/mL | MIC [6, 18]: > 8 µg/mL | MIC (Edwardsiella tarda): > 8 µg/mL | MIC (E. coli BW25113; BW25113, E. coli BW25113): > 8 µg/mL

CSc1ccc(CN2CC[C@@H](NS(=O)(=O)c3cccc(OC(F)(F)F)c3)C2)cc1 [Compound 176]
MIC (Shigella flexneri): > 8 µg/mL | MIC [2]: > 8 µg/mL | MIC [3]: > 8 µg/mL | MIC (E. coli JW5503 (deltolC); E. coli JW5503 (deltolC)): 8 µg/mL (≈ 17.9 µM) | MIC [4, 16]: > 8 µg/mL | MIC (Streptococcus pyogenes): > 8 µg/mL | MIC [5, 17]: > 8 µg/mL | MIC (Streptococcus agalactiae): > 8 µg/mL | MIC (E. coli MG1655; MG1655, E. coli MG1655): > 8 µg/mL | MIC [6, 18]: > 8 µg/mL | MIC (Edwardsiella tarda): > 8 µg/mL | MIC (E. coli BW25113; BW25113, E. coli BW25113): > 8 µg/mL
